Laboratory results as given in patent US7507407B2, “Immunoliposomes that optimize internationalization into target cells” (The Regents of the University of California, priority 1994, dated 2009).

Columns and labels:
[1] = system: WI-38 cells; experiment: cytotoxicity of doxorubicin-loaded immunoliposomes, WI-38 cells; format: cell-based; conditions: minimal p185^HER2
[2] = system: SK-BR-3 cells; conditions: treated 1 hour, counted after 3 days, doxorubicin concentration
Protocol: (A) SK-BR-3 cells. […] Cells in culture were treated for 1 hour with: conventional immunoliposomes (triangles); sterically stabilized (2 mole % PEG-PE) immunoliposomes (closed circles); control (irrelevant antibody) sterically stabilized (2 mole % PEG-PE) immunoliposomes (open circles); or free doxorubicin alone (closed squares). Immunoliposomes contained 60-70 μg antibody/μmol phospholipid and 55-80 μg doxorubicin/μmol phospholipid; antibody/doxorubicin ratio was 0.8-1.2. Cells were counted 3 days after treatment as described in Methods.
To test the cytotoxicity of doxorubicin-loaded immunoliposomes, SK-BR-3 or WI-38 cells in monolayer culture were incubated with free doxorubicin or doxorubicin-loaded immunoliposomes for 1 hour, and then washed extensively with media. The cells were then further incubated at 37° C. for 3 days, after which cell number was estimated by crystal violet staining as described above.

With `COc1cccc2c1C(=O)c1c(O)c3c(c(O)c1C2=O)C[C@@](O)(C(=O)CO)C[C@@H]3O[C@H]1C[C@H](N)[C@H](O)[C@H](C)O1` [doxorubicin] the “cytotoxicity against WI-38 cells” value [1] was “significant dose-dependent cytotoxicity” and the IC50 cytotoxicity [2] was “approximately 0.3 μg/ml”.
